The results in this text go back to patent publication US8962681B2, “Use of aminoacetonitrile derivatives against endoparasites” (Zoetis LLC, priority 2011, dated 2015).

For assay [1], the system named is L4 stage larvae of D. immitis. Nature of the assay: L4 stage larvae motility/kill assay. It counts as cell-based, Dirofilaria immitis.
For assay [2], the system named is Dirofilaria immitis microfilariae. Nature of the assay: in vitro microwell motility assay against heartworm microfilariae. It counts as cell-based. The following applies: microfilaria from canine blood, 384 well plate, 72 hours incubation at 37° C. and 5% CO2, LemnaTec Scanalyzer.
[3] abbreviates: screened at 10 μM in duplicate, 96-well plate, motility observed at 4, 24, 48 and 72 hours, endpoint defined as ED80 (80% of larvae killed).

Where two headings read alike, the source gives them in different places.

On to `CO[C@H]1C[C@H](O[C@@H]2/C(C)=C/C[C@@H]3C[C@@H](C[C@]4(CC[C@H](C)[C@@H](C5CCCCC5)O4)O3)OC(=O)[C@@H]3C=C(C)/C(=N/O)[C@H]4OC/C(=C\C=C\[C@@H]2C)[C@]43O)O[C@@H](C)[C@@H]1O` [Selamectin, reference compound], for which, in assay [1], the “active against L4 D. immitis at 10 μM” value is listed as “active”.

Take `CO/N=C1\C[C@]2(C[C@@H]3C[C@@H](C/C=C(\C)C[C@@H](C)/C=C/C=C4\CO[C@@H]5[C@H](O)C(C)=C[C@@H](C(=O)O3)[C@]45O)O2)O[C@H](/C(C)=C/C(C)C)[C@H]1C` [moxidectin, reference compound]: the “active against L4 D. immitis at 10 μM” value in assay [1] (setting [3]) is recorded as “active”.

Take `CC(C#N)(COc1cc(C#N)ccc1C(F)(F)F)NC(=O)c1ccc(S(F)(F)(F)(F)F)cc1` (centres unmarked) [test compound 1, N-{1-cyano-2-[5-cyano-2-(trifluoromethyl)phenoxy]-1-methylethyl}-4-(pentafluorothio)benzamide]: the “ED50 (dose at which the overall microfilaria motility was reduced by 50% compared to that of an untreated control)” value in assay [2] turned out to be 10 µM. Also, the “active against L4 D. immitis at 10 μM” value in assay [1] (setting [3]) was “active”.

On to `CC(C#N)(COc1ccc(C#N)cc1C(F)(F)F)NC(=O)c1ccc(S(F)(F)(F)(F)F)cc1` (centres unmarked) [test compound 7, N-{1-cyano-2-[4-cyano-2-(trifluoromethyl)phenoxy]-1-methylethyl}-4-(pentafluorothio)benzamide], for which the “active against L4 D. immitis at 10 μM” value in assay [1] (setting [3]) is given as “active”.

Consider `CC(C#N)(COc1ccc(Cl)cc1Cl)NC(=O)c1ccc(S(F)(F)(F)(F)F)cc1` (centres unmarked) [test compound 8, N-[1-cyano-2-(2,4-dichlorophenoxy)-1-methylethyl]-4-(pentafluorothio)benzamide], for which, in assay [1] (setting [3]), the “active against L4 D. immitis at 10 μM” value is recorded as “active”.

In the case of `CC(C#N)(COc1ccc(Cl)cc1)NC(=O)c1ccc(S(F)(F)(F)(F)F)cc1` (centres unmarked) [test compound 10, N-[2-(4-chlorophenoxy)-1-cyano-1-methylethyl]-4-(pentafluorothio)benzamide], the “active against L4 D. immitis at 10 μM” value in assay [1] (setting [3]) is listed as “active”.

For `CC(C#N)(COc1ccc(Cl)cc1C#N)NC(=O)c1ccc(S(F)(F)(F)(F)F)cc1` (centres unmarked) [test compound 11, N-[2-(4-chloro-2-cyanophenoxy)-1-cyano-1-methylethyl]-4-(pentafluorothio)-benzamide], in assay [1] (setting [3]), the “active against L4 D. immitis at 10 μM” value is on record as “active”.

In the case of `CC(C#N)(COc1ccc(I)cc1)NC(=O)c1ccc(S(F)(F)(F)(F)F)cc1` (centres unmarked) [test compound 13, N-[1-cyano-2-(4-iodophenoxy)-1-methylethyl]-4-(pentafluorothio)benzamide], the “active against L4 D. immitis at 10 μM” value in assay [1] (setting [3]) was “active”.

In the case of `CC(C#N)(COc1ccccc1C(F)(F)F)NC(=O)c1ccc(S(F)(F)(F)(F)F)cc1` (centres unmarked) [test compound 14, N-{1-cyano-1-methyl-2-[2-(trifluoromethyl)phenoxy]ethyl}-4-(pentafluorothio)-benzamide], the “ED50 (dose at which the overall microfilaria motility was reduced by 50% compared to that of an untreated control)” value in assay [2] is 10 µM. Also, in assay [1] (setting [3]), the “active against L4 D. immitis at 10 μM” value is given as “active”.

For `CC(C#N)(COc1ccccc1Cl)NC(=O)c1ccc(S(F)(F)(F)(F)F)cc1` (centres unmarked) [test compound 16, N-[2-(2-chlorophenoxy)-1-cyano-1-methylethyl]-4-(pentafluorothio)benzamide], the “ED50 (dose at which the overall microfilaria motility was reduced by 50% compared to that of an untreated control)” value in assay [2] came to 33 µM. Further, in assay [1] (setting [3]), the “active against L4 D. immitis at 10 μM” value is “active”.

With `CC(C#N)(COc1ccc(F)cc1Cl)NC(=O)c1ccc(S(F)(F)(F)(F)F)cc1` (centres unmarked) [test compound 18, N-[2-(2-chloro-4-fluorophenoxy)-1-cyano-1-methylethyl]-4-(pentafluorothio)-benzamide], in assay [2], the “ED50 (dose at which the overall microfilaria motility was reduced by 50% compared to that of an untreated control)” value amounted to 33 µM. Further, the “active against L4 D. immitis at 10 μM” value in assay [1] (setting [3]) is given as “active”.

Turning to `CC(C#N)(COc1ccc(C#N)cc1Br)NC(=O)c1ccc(S(F)(F)(F)(F)F)cc1` (centres unmarked) [test compound 29, N-[2-(2-bromo-4-cyanophenoxy)-1-cyano-1-methylethyl]-4-(pentafluorothio)-benzamide], the “active against L4 D. immitis at 10 μM” value in assay [1] (setting [3]) is recorded as “active”.

In the case of `COc1ccc(OCC(C)(C#N)NC(=O)c2ccc(S(F)(F)(F)(F)F)cc2)c(C(F)(F)F)c1` (centres unmarked) [test compound 42, N-{1-cyano-2-[4-methoxy-2-(trifluoromethyl)phenoxy]-1-methylethyl}-4-(pentafluorothio)benzamide], in assay [2], the “ED50 (dose at which the overall microfilaria motility was reduced by 50% compared to that of an untreated control)” value was determined as 33 µM. For the same compound, in assay [1] (setting [3]), the “active against L4 D. immitis at 10 μM” value is listed as “active”.

In the case of `Cc1ccc(C#N)cc1OCC(C)(C#N)NC(=O)c1ccc(S(F)(F)(F)(F)F)cc1` (centres unmarked) [test compound 43, N-[1-cyano-2-(5-cyano-2-methylphenoxy)-1-methylethyl]-4-(pentafluorothio)benzamide], the “ED50 (dose at which the overall microfilaria motility was reduced by 50% compared to that of an untreated control)” value in assay [2] was determined as 10 µM. Also, the “active against L4 D. immitis at 10 μM” value in assay [1] (setting [3]) is reported as “active”.

In the case of `C[C@](C#N)(COc1ccc(C#N)cc1C(F)(F)F)NC(=O)c1ccc(S(F)(F)(F)(F)F)cc1` [test compound 51a], the “ED50 (dose at which the overall microfilaria motility was reduced by 50% compared to that of an untreated control)” value in assay [2] turned out to be 10 µM. Also, the “active against L4 D. immitis at 10 μM” value in assay [1] (setting [3]) is “active”.

As to `CC(C#N)(COc1cc(C#N)ccc1Oc1ccccc1)NC(=O)c1ccc(S(F)(F)(F)(F)F)cc1` (centres unmarked) [test compound 60, N-[1-cyano-2-(5-cyano-2-phenoxyphenoxy)-1-methylethyl]-4-(pentafluorothio)benzamide], in assay [2], the “ED50 (dose at which the overall microfilaria motility was reduced by 50% compared to that of an untreated control)” value amounted to 3.3 µM. In assay [1] (setting [3]), the “active against L4 D. immitis at 10 μM” value is “active”.

Take `COc1ccccc1Oc1ccc(C#N)cc1OCC(C)(C#N)NC(=O)c1ccc(S(F)(F)(F)(F)F)cc1` (centres unmarked) [test compound 69, N-{1-cyano-2-[5-cyano-2-(2-methoxyphenoxy)phenoxy]-1-methylethyl}-4-(pentafluorothio)benzamide]: the “active against L4 D. immitis at 10 μM” value in assay [1] (setting [3]) was “active”.

For the compound `Cc1ccc(Oc2ccc(C#N)cc2OCC(C)(C#N)NC(=O)c2ccc(S(F)(F)(F)(F)F)cc2)c(Cl)c1` (centres unmarked) [test compound 71, N-{2-[2-(2-chloro-4-methylphenoxy)-5-cyanophenoxy]-1-cyano-1-methylethyl}-4-(pentafluorothio)benzamide], the “ED50 (dose at which the overall microfilaria motility was reduced by 50% compared to that of an untreated control)” value in assay [2] came out at 1 µM.

On to `Cc1ccc(Oc2ccc(C#N)cc2OCC(C)(C#N)NC(=O)c2ccc(S(F)(F)(F)(F)F)cc2)c(C)c1` (centres unmarked) [test compound 72, N-{1-cyano-2-[5-cyano-2-(2,4-dimethylphenoxy)phenoxy]-1-methylethyl}-4-(pentafluorothio)benzamide], for which, in assay [2], the “ED50 (dose at which the overall microfilaria motility was reduced by 50% compared to that of an untreated control)” value was determined as 1 µM.

As to `COc1ccc(Oc2ccc(C#N)cc2OCC(C)(C#N)NC(=O)c2ccc(S(F)(F)(F)(F)F)cc2)c(Cl)c1` (centres unmarked) [test compound 75, N-{2-[2-(2-chloro-4-methoxyphenoxy)-5-cyanophenoxy]-1-cyano-1-methylethyl}-4-(pentafluorothio)benzamide], in assay [2], the “ED50 (dose at which the overall microfilaria motility was reduced by 50% compared to that of an untreated control)” value worked out at 3.3 µM.

For `COc1ccc(Oc2ccc(C#N)cc2OCC(C)(C#N)NC(=O)c2ccc(S(F)(F)(F)(F)F)cc2)c(F)c1F` (centres unmarked) [test compound 76, N-{1-cyano-2-[5-cyano-2-(2,3-difluoro-4-methoxyphenoxy)phenoxy]-1-methylethyl}-4-(pentafluorothio)benzamide], in assay [2], the “ED50 (dose at which the overall microfilaria motility was reduced by 50% compared to that of an untreated control)” value came to 10 µM.

For the compound `COc1cc(F)c(Oc2ccc(C#N)cc2OCC(C)(C#N)NC(=O)c2ccc(S(F)(F)(F)(F)F)cc2)c(F)c1` (centres unmarked) [test compound 77, N-{1-cyano-2-[5-cyano-2-(2,6-difluoro-4-methoxyphenoxy)phenoxy]-1-methylethyl}-4-(pentafluorothio)benzamide], the “ED50 (dose at which the overall microfilaria motility was reduced by 50% compared to that of an untreated control)” value in assay [2] amounted to 10 µM.

With `COc1c(F)cc(Oc2ccc(C#N)cc2OCC(C)(C#N)NC(=O)c2ccc(S(F)(F)(F)(F)F)cc2)cc1F` (centres unmarked) [test compound 78, N-{1-cyano-2-[5-cyano-2-(3,5-difluoro-4-methoxyphenoxy)phenoxy]-1-methylethyl}-4-(pentafluorothio)benzamide], the “ED50 (dose at which the overall microfilaria motility was reduced by 50% compared to that of an untreated control)” value in assay [2] came to 1 µM.

Consider `COc1cc(O)ccc1Oc1ccc(C#N)cc1OCC(C)(C#N)NC(=O)c1ccc(S(F)(F)(F)(F)F)cc1` (centres unmarked) [test compound 79, N-{1-cyano-2-[5-cyano-2-(4-hydroxy-2-methoxyphenoxy)phenoxy]-1-methylethyl}-4-(pentafluorothio)benzamide], for which the “ED50 (dose at which the overall microfilaria motility was reduced by 50% compared to that of an untreated control)” value in assay [2] is 10 µM.

`CC(C#N)(COc1ccc(-c2cccnc2)cc1C(F)(F)F)NC(=O)c1ccc(S(F)(F)(F)(F)F)cc1` (centres unmarked) [test compound 82, N-{1-cyano-1-methyl-2-[4-pyridin-3-yl-2-(trifluoromethyl)phenoxy]ethyl}-4-(pentafluorothio)benzamide]: the “ED50 (dose at which the overall microfilaria motility was reduced by 50% compared to that of an untreated control)” value in assay [2] was 10 µM.

As for `CC(C#N)(NC(=O)c1ccc(S(F)(F)(F)(F)F)cc1)C1Cc2cc(C#N)cc(C(F)(F)F)c2O1` (centres unmarked) [test compound 83, N-{1-cyano-1-[5-cyano-7-(trifluoromethyl)-2,3-dihydro-1-benzofuran-2-yl]ethyl}-4-(pentafluorothio)benzamide], the “ED50 (dose at which the overall microfilaria motility was reduced by 50% compared to that of an untreated control)” value in assay [2] came out at 10 µM.

In the case of `CC(C#N)(COCc1ccc(C(F)(F)F)cc1)NC(=O)c1ccc(S(F)(F)(F)(F)F)cc1` (centres unmarked) [test compound 84, N-(1-cyano-1-methyl-2-{[4-(trifluoromethyl)benzyl]oxy}ethyl)-4-(pentafluorothio)benzamide], the “ED50 (dose at which the overall microfilaria motility was reduced by 50% compared to that of an untreated control)” value in assay [2] was found to be 3.3 µM.

Consider `CC(C#N)(Cc1ccc(C#N)cc1Cl)NC(=O)c1ccc(S(F)(F)(F)(F)F)cc1` (centres unmarked) [test compound 90, N-[2-(2-chloro-4-cyanophenyl)-1-cyano-1-methylethyl]-4-(pentafluorothio)benzamide], for which, in assay [2], the “ED50 (dose at which the overall microfilaria motility was reduced by 50% compared to that of an untreated control)” value amounted to 33 µM.

Turning to ivermectin [reference compound], the “active against L4 D. immitis at 10 μM” value in assay [1] is “active”.

Regarding milbemycin oxime [reference compound], in assay [1] (setting [3]), the “active against L4 D. immitis at 10 μM” value is listed as “active”.
